Results taken from ChEMBL document CHEMBL5726294, “Derivatives of 6-(2,3-dichlorophenyl)-1,2,4-triazin-5-amine” (2019).
Values joined by “and” are separate entries in the source; they are usually repeats but may differ in a detail not shown here. Equal entries are not always repeated.

Columns and labels:
[1] = target: T1, Sodium channel protein type 9 subunit alpha (Homo sapiens, UniProt Q15858); experiment: (§1) Ex-Vivo Potencies in Inactivated state: The potencies of the compounds provided herein to block specific Na+ channels was measured using automated patch clamp electrophysiologically of Nav1.7 sodium channels (human SCN9A gene) stably expressed in CHO cells using the IonWorks Barracuda system. Currents were measured from the whole cell patch configuration. From a holding potential of −90 mV, membranes were subjected to a 200 ms pre-pulse to −120 mV, then pulsed to 0 mV to measure blockade of the tonic (resting) state. Inactivated state block was elicited by repolarization to −100 mV (20 ms pulse duration), followed by depolarization to 0 mV (20 ms pulse duration). Peak inward Na+ currents were measured in the presence of vehicle or various concentrations of the test compound to determine the percent block of current.; type: cell-based
T1 sequence (Q15858 whole entry): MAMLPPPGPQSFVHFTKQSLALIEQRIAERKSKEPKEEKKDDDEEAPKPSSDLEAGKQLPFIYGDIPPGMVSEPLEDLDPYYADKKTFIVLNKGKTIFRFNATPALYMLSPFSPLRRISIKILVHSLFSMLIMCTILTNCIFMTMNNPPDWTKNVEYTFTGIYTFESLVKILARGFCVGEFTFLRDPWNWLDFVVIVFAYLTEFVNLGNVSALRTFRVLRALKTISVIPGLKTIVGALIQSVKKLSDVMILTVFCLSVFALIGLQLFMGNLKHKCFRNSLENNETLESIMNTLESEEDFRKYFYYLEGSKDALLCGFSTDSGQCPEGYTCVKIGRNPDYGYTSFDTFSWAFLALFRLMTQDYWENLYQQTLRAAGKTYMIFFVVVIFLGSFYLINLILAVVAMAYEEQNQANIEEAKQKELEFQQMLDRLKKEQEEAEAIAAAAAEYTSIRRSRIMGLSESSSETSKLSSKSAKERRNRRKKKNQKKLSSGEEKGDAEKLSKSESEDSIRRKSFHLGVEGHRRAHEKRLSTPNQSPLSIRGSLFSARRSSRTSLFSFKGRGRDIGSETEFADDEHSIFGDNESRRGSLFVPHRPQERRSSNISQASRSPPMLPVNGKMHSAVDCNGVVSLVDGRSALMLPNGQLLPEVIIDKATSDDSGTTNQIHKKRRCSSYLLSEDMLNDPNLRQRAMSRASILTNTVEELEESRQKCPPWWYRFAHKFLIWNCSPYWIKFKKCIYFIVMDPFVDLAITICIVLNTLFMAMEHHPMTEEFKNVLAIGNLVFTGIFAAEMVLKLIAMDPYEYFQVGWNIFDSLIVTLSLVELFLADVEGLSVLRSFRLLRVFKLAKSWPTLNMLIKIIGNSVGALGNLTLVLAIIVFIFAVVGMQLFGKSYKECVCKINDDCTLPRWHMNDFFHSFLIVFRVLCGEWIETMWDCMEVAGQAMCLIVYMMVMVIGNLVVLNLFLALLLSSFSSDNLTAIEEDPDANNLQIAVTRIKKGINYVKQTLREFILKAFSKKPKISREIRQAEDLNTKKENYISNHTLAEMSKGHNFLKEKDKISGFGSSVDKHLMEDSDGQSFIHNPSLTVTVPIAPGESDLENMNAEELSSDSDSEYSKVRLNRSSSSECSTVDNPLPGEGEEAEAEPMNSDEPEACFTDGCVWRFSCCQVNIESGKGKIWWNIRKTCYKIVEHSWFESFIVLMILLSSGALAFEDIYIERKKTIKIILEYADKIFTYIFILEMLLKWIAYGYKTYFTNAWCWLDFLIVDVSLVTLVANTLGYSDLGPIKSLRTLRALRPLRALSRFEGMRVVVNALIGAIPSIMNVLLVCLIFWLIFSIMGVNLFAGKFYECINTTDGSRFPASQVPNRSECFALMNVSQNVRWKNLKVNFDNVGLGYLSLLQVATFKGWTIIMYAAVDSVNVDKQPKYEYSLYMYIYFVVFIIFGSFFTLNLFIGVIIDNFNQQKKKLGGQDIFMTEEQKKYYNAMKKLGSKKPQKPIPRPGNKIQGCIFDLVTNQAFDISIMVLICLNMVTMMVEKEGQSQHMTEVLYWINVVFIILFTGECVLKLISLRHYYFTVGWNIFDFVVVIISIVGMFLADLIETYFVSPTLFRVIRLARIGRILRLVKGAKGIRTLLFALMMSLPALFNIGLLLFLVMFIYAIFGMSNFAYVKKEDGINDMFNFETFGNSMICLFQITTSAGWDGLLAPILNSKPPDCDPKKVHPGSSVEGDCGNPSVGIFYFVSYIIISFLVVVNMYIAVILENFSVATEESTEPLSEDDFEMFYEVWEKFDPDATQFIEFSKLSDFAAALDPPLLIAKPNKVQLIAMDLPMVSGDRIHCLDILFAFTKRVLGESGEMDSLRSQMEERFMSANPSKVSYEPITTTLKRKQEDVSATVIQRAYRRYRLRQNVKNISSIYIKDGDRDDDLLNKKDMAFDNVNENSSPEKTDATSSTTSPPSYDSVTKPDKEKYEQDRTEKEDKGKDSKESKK

[2] = target: T1, Sodium channel protein type 9 subunit alpha; experiment: as §1, with “in Tonic” for “in Inactivated”; type: cell-based

Structure (SMILES)	IC50 [1]	IC50 [2]
COCCOCCOCCOc1ccc(-c2nnc(N)nc2N)c(Cl)c1Cl	> 300 µM	–
Nc1nc(N2CCC(O)(C(F)(F)F)CC2)nnc1-c1cccc(Cl)c1Cl	73.9 µM and 59.1 µM	> 200 µM and 165 µM
COCCOCCOCC(C)Nc1nnc(-c2cccc(Cl)c2Cl)c(N)n1 (centres undefined)	< 50 µM	> 200 µM
Nc1nc(N2CC(O)(C(F)(F)F)C2)nnc1-c1cccc(Cl)c1Cl	291 µM and 249 µM	> 200 µM
Nc1nc(N2CCN(C3CCNCC3)CC2)nnc1-c1cccc(Cl)c1Cl	272 µM	> 200 µM
C[C@@H]1CN(c2nnc(-c3cc(F)cc(Cl)c3Cl)c(N)n2)C[C@H](C)N1	< 50 µM	92.4 µM
Nc1nc(N2CCNCC2)nnc1-c1cc(F)cc(Cl)c1Cl	84.5 µM	> 200 µM
COCCOCCOCCN1CCC(Nc2nnc(-c3cc(F)cc(Cl)c3Cl)c(N)n2)CC1	–	> 200 µM
Nc1nc(N2CCN[C@H](CO)C2)nnc1-c1cc(F)cc(Cl)c1Cl	72.6 µM	> 200 µM
COCCOCCOCCN1CCN(c2nnc(-c3cccc(Cl)c3Cl)c(N)n2)CC1	54.9 µM and < 50 µM	> 200 µM
Nc1nc(N2CC(O)C2)nnc1-c1cccc(Cl)c1Cl	–	> 132 µM
Nc1nc(N2CC(N)C2)nnc1-c1cccc(Cl)c1Cl	284 µM	–
Nc1nc(NCCOCCNCC(=O)O)nnc1-c1cccc(Cl)c1Cl	> 300 µM	–
Nc1nc(N2CCN[C@@H](CO)C2)nnc1-c1cc(F)cc(Cl)c1Cl	111 µM	> 200 µM
COCCOCCOCC(=O)N1CCN(c2nnc(-c3cc(F)cc(Cl)c3Cl)c(N)n2)CC1	146 µM and 220 µM	> 200 µM
Nc1nc(N2CCN[C@H](CO)C2)nnc1-c1cccc(Cl)c1Cl	71.8 µM	> 200 µM
COCCOCCOCCN(C)C1CCN(c2nnc(-c3cccc(Cl)c3Cl)c(N)n2)CC1	< 50 µM	92.5 µM
CC(CO)Nc1nnc(-c2cccc(Cl)c2Cl)c(N)n1 (centres undefined)	127 µM	> 200 µM
Nc1nc(NC2CCNCC2)nnc1-c1cccc(Cl)c1Cl	> 300 µM	–
Nc1nc(N2CCN(CC(O)CO)[C@H](CO)C2)nnc1-c1cccc(Cl)c1Cl (some centres undefined)	293 µM and 243 µM	> 200 µM
C[C@@H]1CN(c2nnc(-c3cccc(Cl)c3Cl)c(N)n2)C[C@H](C)N1	< 50 µM	112 µM
Nc1nc(N2CCN(C3CCOCC3)CC2)nnc1-c1cccc(Cl)c1Cl	< 50 µM	147 µM
Nc1nc(N2CC(OCC(F)(F)F)C2)nnc1-c1cccc(Cl)c1Cl	> 300 µM	–
